In PMC10891067, “A co-assembly platform engaging macrophage scavenger receptor A for lysosome-targeting protein degradation” (Nature Communications, 2024):
One block for each compound: values may come before it. Non-standard residues stand in square brackets, D forms with d. Residues, ends and D or L forms follow the SMILES beside them. *: point of attachment. Acetyl(2-naphthyl) = O=C(Cc1ccc2ccccc2c1)*; Ahx = NCCCCCC(=O)O

Columns and labels:
[1] = tested on: RAW264.7 cells; test: IL-17A uptake mechanism: endocytic pathway inhibitors, 4 °C, NaN3; assay type: cell-based; conditions: RAW264.7, 0.5 μg/ml IL-17A + 50 μM mixed fi-SRAL and fi-17Abp, 6 h; NaN3 100 mM, CPZ 3 μg/ml, Me-β-CD 0.5 mM, EIPA 20 μM
Experimental: To evaluate the uptake mechanism of IL-17A, RAW264.7 cells were pretreated with various inhibitors for 30 min at 37 °C: chlorpromazine (clathrin-mediated endocytosis inhibitor, 3 μg/ml), Me-β-cyclodextrin (0.5 mM, lipid rafting pathway inhibitors), EIPA (20 μM, pinocytosis inhibitor). In addition, the cells were cultured at 4 °C or treated with NaN3 (100 mM) to assess the effect of energy on IL-17A uptake. After that, the cells were cultured with fresh medium containing inhibitors at the same concentrations, 50 μM 17Abp and SRAL mixture, and 0.5 μg/ml IL-17A for 6 h. The uptake of the IL-17A by cells was analyzed through flow cytometry according to the procedure mentioned above.
Supplementary Fig. 5 Uptake of IL-17A by macrophages is an energy-dependent process involving several endocytosis pathways. a) Uptake of IL-17A in RAW264.7 cells incubated at 4 °C or pretreated with 100 mM NaN3 for 0.5 h followed by the addition of 0.5 μg/ml IL-17A and 50 μM mixed fi-SRAL and fi-17Abp peptides for 6 h. b) Uptake of IL-17A in RAW264.7 cells incubated with 0.5 mM Me-β-CD (lipid rafting pathway inhibitor), 20 μM EIPA (pinocytosis inhibitor) or 3 μg/ml CPZ (clathrin-endocytosis inhibitor) for 0.5 h followed by the addition of 0.5 μg/ml IL-17A and 50 μM mixed fi-SRAL and fi-17Abp peptides for 6 h. MFI was determined by flow cytometry and the relative MFI was normalized to the control group. Data are presented as the mean ± SD, and error bars represent the standard deviation of biological replicates (n = 3). P values were determined by one-way ANOVA with Tukey’s multiple comparisons test. […]

[2] = target: T1, IL-17A (Mus musculus, UniProt Q62386); test: Lysosome inhibition assay (LPT, BafA1); assay type: cell-based; set-up: host or cells: added exogenously to RAW264.7, SR-A-KO RAW264.7, U-118 MG, DC 2.4 or HaCaT cells; conditions: RAW264.7, 0.5 μg/ml IL-17A + 50 μM 17A-Lytaca, 6 h
T1 sequence (Q62386 26-158): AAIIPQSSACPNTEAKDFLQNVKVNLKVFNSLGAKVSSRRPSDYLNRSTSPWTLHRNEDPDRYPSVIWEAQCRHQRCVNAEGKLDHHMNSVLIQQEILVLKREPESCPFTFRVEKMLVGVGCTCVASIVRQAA
Experimental: To confirm the involvement of lysosomes, RAW264.7 cells were pretreated with PBS, LPT (0.1 mg/ml), or BafA1 (100 nM) for 2 h at 37 °C. […] The accumulation of IL-17A in the cells was then measured via flow cytometry, following the aforementioned procedure.

[3] = target: T2, SR-A (Mus musculus, UniProt P30204); test: SR-A inhibition assay with poly I / poly C (IL-17A uptake); assay type: cell-based; conditions: RAW264.7, with exogenous IL-17A and the peptide mixture
T2 construct: endogenous in cells; host or cells: RAW264.7
T2 sequence (P30204 1-458): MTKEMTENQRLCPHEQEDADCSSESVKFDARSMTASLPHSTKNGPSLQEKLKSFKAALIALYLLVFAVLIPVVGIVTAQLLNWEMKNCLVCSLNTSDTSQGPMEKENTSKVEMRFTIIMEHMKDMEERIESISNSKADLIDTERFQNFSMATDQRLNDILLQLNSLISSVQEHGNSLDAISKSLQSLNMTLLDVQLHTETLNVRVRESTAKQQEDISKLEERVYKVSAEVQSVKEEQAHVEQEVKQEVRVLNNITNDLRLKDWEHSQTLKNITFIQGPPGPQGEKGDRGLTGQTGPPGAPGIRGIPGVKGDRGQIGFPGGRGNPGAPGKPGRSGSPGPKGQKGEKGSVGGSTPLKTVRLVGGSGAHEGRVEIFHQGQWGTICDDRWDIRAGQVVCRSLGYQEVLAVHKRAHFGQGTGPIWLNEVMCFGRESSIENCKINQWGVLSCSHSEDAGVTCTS
Experimental: To verify the involvement of SR-A in the IL-17A endocytosis, RAW264.7 cells were treated with the SR-A inhibitor Poly I or the control Poly C at the indicated concentration together with the 50 μM 17Abp and SRAL mixture and 0.5 μg/ml IL-17A for 6 h. Then, flow cytometry analysis was used to measure the intracellular IL-17A level according to the procedure mentioned above.

[4] = target: T3, PD-L1 (Mus musculus, UniProt Q9EP73); test: Western blot of PD-L1 in RAW264.7 cells; assay type: cell-based; conditions: Suppl Fig.18c, 50 μM, PBS = 100
T3 construct: endogenous in cells; host or cells: RAW264.7 (WT and SR-A-KO)
T3 sequence (Q9EP73 19-290): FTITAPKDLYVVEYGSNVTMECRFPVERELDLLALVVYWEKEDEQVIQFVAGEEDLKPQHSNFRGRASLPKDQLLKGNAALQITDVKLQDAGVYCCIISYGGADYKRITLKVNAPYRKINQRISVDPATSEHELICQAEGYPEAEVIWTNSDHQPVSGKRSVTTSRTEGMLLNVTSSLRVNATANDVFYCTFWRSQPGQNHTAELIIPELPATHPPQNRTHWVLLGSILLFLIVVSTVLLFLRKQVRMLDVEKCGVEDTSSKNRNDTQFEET
Experimental: Proteins were extracted using RIPA buffer (Beyotime) supplemented with protease inhibitors (Beyotime) and quantified using the BCA assay (Solarbio). SDS–PAGE was performed to separate proteins, which were then transferred to PVDF membranes (EMD Millipore). Next, the membranes were blocked in 5% fat-free milk for 2 h and incubated with primary antibodies at 4 °C overnight. including Rabbit anti-GAPDH antibody (1:5000, ab181602, Abcam), Mouse anti-GAPDH antibody (1:5000, 60004-1-Ig, Proteintech), Rabbit anti-CD2O4 antibody (1:1000, ab151707, Abcam), Mouse anti-PD-L1antibody (1:1000, 66248-1-Ig, Proteintech), Mouse anti-His-Tag antibody (1:2000, CW0286, CoWin Biosciences), Phospho-p44/42 MAPK (Erk1/2) (Thr202/Tyr204) (D13.14.4E) XP® Rabbit mAb, (1:1000, 4370T, Cell Signaling Technology), p44/42 MAPK (Erk1/2) (137F5) Rabbit mAb (1:1000 4695T, Cell Signaling Technology). After washing the membranes three times, secondary antibodies including HRP-conjugated Affinipure Goat Anti-Mouse IgG(H + L) (1:5000, SA00001-1, Proteintech), HRP-conjugated Affinipure Goat Anti-Rabbit IgG(H + L) (1:5000, SA00001-2, Proteintech) labeled with horseradish peroxidase (Proteintech) were applied at room temperature for 2 h and the immunoreactivity was visualized by supper ECL western blotting substrate (Coolaber). The densitometric analysis was performed by ImageJ software (NIH).

[5] = target: T1, IL-17A; test: IL-17A protein level in skin lesion (ELISA); assay type: in vivo; conditions: i.p. 7 days: fm-17Abp 15, fm-SRAL 22, 17A-Lytaca 15+22, control-Lytaca 12+22 mg/kg/day, MTX 1 mg/kg/twice day
Experimental: Plasma cytokine concentrations of IL-17A, IL-6, IL-22, and CCL-20 were determined by a commercial ELISA kit (Dogesce). For skin IL-17A detection, the back skin of mice was isolated and triturated with a grinder (Tiss-24, Jing Xin). Cell debris was precipitated via centrifugation (1000×g, 4 °C, 15 min), and IL-17A was measured in the supernatant using the IL-17A ELISA kit (Dogesce) and normalized to the total protein concentration, which was determined via BCA assay.

[6] = tested on: IMQ-induced psoriasis-like mouse model; test: IMQ-induced psoriasis mouse model: acanthosis (H&E of back skin); assay type: in vivo; conditions: day 7, H&E of back skin, IMQ psoriasis BALB/c mice, i.p. 7 days: fm-17Abp 15, fm-SRAL 22, 17A-Lytaca 15+22, control-Lytaca 12+22 mg/kg/day, MTX 1 mg/kg/twice day
Experimental: 8 to10-week-old female BALB/c mice were purchased from Peking University Health Science Center Department of Laboratory Animal Science. They were randomly divided into seven groups. Vehicle group (PBS administration) was treated with 62.5 mg/day of Vaseline cream while the other six groups were treated with 62.5 mg/day of 5% IMQ cream (Sichuan Med-shine Pharmaceuticals) on the shaved back skin (2 cm × 3 cm) of mice (days 1–7).
The psoriasis area and severity index (PASI) consists of measurements of skin erythema, scale, and thickness. They were scored independently on a scale of 0–4: 0, none; 1, slight; 2, moderate; 3, marked; 4, very marked. The cumulative PASI score was obtained by adding the 3 index scores (scores of 0–12). The thickness of the mouse skin was measured using a micrometer, and the average value was measured three times a day. For histopathology analysis, tissues from the euthanized animals were fixed in formalin and embedded in paraffin. Sections (5 μm thickness) were stained with H&E.

Compound: CCN(c1nc(N)c(C(=O)N=C(N)N)nc1Cl)C(C)C [EIPA, 5-(N-ethyl-N-isopropyl)-amiloride]
- Effect of endocytosis/energy inhibitor on IL-17A uptake (in words) [1]: decreased IL-17A uptake

Compound: CC(=O)N[C@@H](CC(C)C)C(=O)N[C@@H](CC(C)C)C(=O)N[C@H](C=O)CCCNC(=N)N [LPT, Leupeptin]
- IL-17A accumulation in cells with lysosome inhibitor (in words) [2]: significantly higher IL-17A accumulation in cells

Compound: methyl-β-cyclodextrin [Me-β-CD]
- Effect of endocytosis/energy inhibitor on IL-17A uptake (in words) [1]: significant decreases in cellular fluorescence

- Effect on IL-17A uptake efficiency (in words) [3]: no discernible impact
Compound: polycytidylic acid [Poly C]

Compound: C[C@H](NC(=O)[C@H](CCC(=O)O)NC(=O)[C@H](C)NC(=O)[C@H](CCC(=O)O)NC(=O)[C@H](C)NC(=O)[C@H](CCC(=O)O)NC(=O)[C@H](C)NC(=O)[C@H](CCC(=O)O)NC(=O)[C@H](C)NC(=O)[C@H](CCC(=O)O)NC(=O)[C@H](C)NC(=O)[C@H](CCC(=O)O)NC(=O)[C@H](C)NC(=O)[C@H](CCC(=O)O)NC(=O)[C@H](C)NC(=O)[C@H](CCC(=O)O)NC(=O)[C@H](C)NC(=O)[C@H](CCC(=O)O)NC(=O)[C@H](C)NC(=O)[C@H](CCC(=O)O)NC(=O)[C@H](C)NC(=O)[C@H](CCC(=O)O)NC(=O)[C@H](C)NC(=O)[C@H](CCC(=O)O)NC(=O)[C@H](C)NC(=O)[C@H](CCC(=O)O)NC(=O)[C@H](C)NC(=O)[C@H](CCC(=O)O)NC(=O)[C@H](C)NC(=O)[C@H](CCC(=O)O)NC(=O)CCCCCNC(=O)[C@H](Cc1ccccc1)NC(=O)[C@H](Cc1ccccc1)NC(=O)Cc1ccc2ccccc2c1)C(N)=O [nf-SRAL] ({Acetyl(2-naphthyl)}-FF[Ahx]EAEAEAEAEAEAEAEAEAEAEAEAEAEAEA-NH2)
- Relative intensity of PD-L1 ([4]; replicate 1): 96
- Relative intensity of PD-L1 ([4]; replicate 2): 106
- Relative intensity of PD-L1 ([4]; replicate 3): 102

Compound: [N-]=[N+]=[N-].[Na+] [NaN3]
- Effect of endocytosis/energy inhibitor on IL-17A uptake (in words) [1]: significantly reduced intracellular fluorescence signals of IL-17A

- Skin IL-17A ([5]; day 7, animal 1 of n = 5, IMQ psoriasis BALB/c mice): 60.0538 pg/mg protein
- Skin IL-17A ([5]; day 7, animal 2 of n = 5, IMQ psoriasis BALB/c mice): 102.2787 pg/mg protein
- Skin IL-17A ([5]; day 7, animal 3 of n = 5, IMQ psoriasis BALB/c mice): 103.0959 pg/mg protein
- Skin IL-17A ([5]; day 7, animal 4 of n = 5, IMQ psoriasis BALB/c mice): 57.7792 pg/mg protein
- Skin IL-17A ([5]; day 7, animal 5 of n = 5, IMQ psoriasis BALB/c mice): 78.3380 pg/mg protein
Compound: CN(Cc1cnc2nc(N)nc(N)c2n1)c1ccc(C(=O)N[C@@H](CCC(=O)O)C(=O)O)cc1 [MTX, methotrexate]
- Acanthosis ([6]; animal 1 of n = 5): 66.3 μm
- Acanthosis ([6]; animal 2 of n = 5): 89.8 μm
- Acanthosis ([6]; animal 3 of n = 5): 73.7 μm
- Acanthosis ([6]; animal 4 of n = 5): 59.4 μm
- Acanthosis ([6]; animal 5 of n = 5): 85.7 μm

- Effect on IL-17A uptake efficiency (in words) [3]: concentration-dependent inhibition
Compound: polyinosinic acid [Poly I]

Compound: CN(C)CCCN1c2ccccc2Sc2ccc(Cl)cc21 [CPZ, chlorpromazine]
- Effect of endocytosis/energy inhibitor on IL-17A uptake (in words) [1]: significant decreases in cellular fluorescence
